# In US11160871B2, “SSTR-targeted conjugates and particles and formulations thereof” (TARVEDA THERAPEUTICS, INC., priority 2015, dated 2021):
# How the values were obtained:
# NCI-H69 SCLC tumors = assay: NCI-H69 SCLC xenografts, PH3 and CC3 after a single dose; type: in vivo, mice
# Experimental: Conjugate 57 was assessed in an in vivo study with NCI-H69 SCLC xenografts model. A single 2 mg/kg dose of Conjugate 57 was administered to mice bearing NCI-H69 SCLC tumors. Levels of cell cycle arrest marker phosphohistone H3 (PH3) were measured at the periphery, middle and core of the tumors. Phosphorylated histone H3 is correlated chromosome condensation during both mitosis and meiosis. […] The biological effects from Conjugate 57 were seen deep in the tumor and distant from blood vessels. Cell death peaks at around 3 days after dosing. […] Conjugates of the present invention can rapidly and deeply penetrate tumor and can exert a prolonged effect on tumor biology.
# [1] = system: NCI-H69 small cell lung cancer model; assay: NCI-H69 model, comparison with standard of care combination; type: in vivo, rats; conditions: Cycle 1 Day 1, Cycle 2 Day 8; Conjugate 57 one cycle at MTD (2 mg/kg), other doses equivalent
# Experimental: In yet another study, single cycle of Conjugate 57 treatment was compared with two cycles of standard of care combination in NCI-H69 small cell lung cancer model. NCI-H69 bearing rats were treated with two cycles of cctreotide+DM1, one or two cycles of cisplatin+etoposide, one cycle of Conjugate 57. Cycle 1 was given on Day 1, Cycle 2 on Day 8. Rats were dosed with MTD (2 mg/kg) of Conjugate 57. Octreotide, DM1, cisplatin, and etoposide doses were equivalent to Conjugate 57.
# [2] = system: NIC-H524 tumor xenograft model (SSTR2 expressing); assay: Dose response study in NIC-H524 tumor xenograft model; type: in vivo
# Experimental: A dose response study was carried out in NIC-H524 tumor xenograft model (SSTR2 expressing) with a single dose of Conjugate 57. Doses evaluated were 0.5 mg/kg, 1.0 mg/kg, and 2.0 mg/kg.
# [3] = Allometric scaling of clearance; set-up: species or system human; conditions: from mouse, rat and dog
# H69 tumors = assay: H69 model tumor growth inhibition; type: in vivo
# [4] = system: HCC-33 (small cell lung cancer) xenograft; assay: HCC-33 xenograft, multiple dose regimens (Example 17); type: in vivo
# Experimental: HCC-33 (small cell lung cancer) xenograft was chosen to study efficacy of Conjugate 57. In some groups, Conjugate 57 was given at 1.0 mg/kg, 0.5 mg/kg or 0.33 mg/kg every week for 30 days, a total of four doses for each animal. In some other groups, Conjugate 57 was also given at 0.5 mg/kg or 0.25 mg/kg twice a week for 30 days, a total of 8 total doses for each animal.
# passage 3 IMR-32 tumors = assay: IMR-32 tumor model; type: in vivo, mice
# Experimental: Further, mice bearing passage 3 IMR-32 tumors were dosed with Conjugate 57 either at 2.0 mg/kg or 1.5 mg/kg once a week for two weeks with a vehicle negative control. […] The 1.5 mpk group only lost an average of 2.0%. All mice recovered once dosing was complete.
# [5] = system: MCF-7 breast cancer cells; assay: MCF-7 cell proliferation; type: cell-based
# Experimental: In an in vitro study, Conjugate 57 is given to MCF-7 breast cancer cells. Cell proliferation of the MCF-7 cells are measured.
# SSTR2 = SSTR2 (Homo sapiens, UniProt P30874); assay: SSTR2 receptor internalization in H524-MD tumor xenograft (IHC); type: in vivo; set-up: expressed in transfected cells
# SSTR2, sequence (P30874 whole entry): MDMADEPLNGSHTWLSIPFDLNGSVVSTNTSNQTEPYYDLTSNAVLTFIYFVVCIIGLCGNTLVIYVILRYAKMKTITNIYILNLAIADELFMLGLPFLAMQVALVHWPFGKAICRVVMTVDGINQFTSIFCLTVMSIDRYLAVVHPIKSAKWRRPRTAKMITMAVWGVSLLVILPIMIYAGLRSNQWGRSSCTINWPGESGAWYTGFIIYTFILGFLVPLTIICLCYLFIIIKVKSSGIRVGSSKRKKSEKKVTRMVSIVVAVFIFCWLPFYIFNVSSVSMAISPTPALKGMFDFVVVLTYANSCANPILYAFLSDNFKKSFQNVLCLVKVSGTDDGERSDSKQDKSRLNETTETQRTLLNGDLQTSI
# Experimental: SSTR2 receptor internalization was studied using Conjugate 57 in a highly expressing SSTR2 positive (SSTR2+) tumor xenograft: H524_MD tumor xenograft. Vehicle (0.1% Solutol/5% Mannitol), Conjugate 57 at 2 mg/kg, scrambled control (BT-984) at 2 mg/kg, and Octreotide at 1.4 mg/kg (ligand alone) were given to SSTR2+H524-MD tumor xenografts (n=3/group). Timepoints—0 hr (Vehicle), 15 mins, 1 hr, 4 hr, 24 hr and 72 hrs. SSTR2 scoring was done by immunohistochemistry (IHC) staining.
# [6] = single dose 0.5, 1.0 and 2.0 mg/kg
# [7] = 0.25 mg/kg 2x/wk, 8 total doses
# [8] = 0.33 mg/kg every week, four doses
# [9] = 0.5 mg/kg every week, four doses
# [10] = 1.0 mg/kg every week, four doses
# [11] = 2 mg/kg, H524-MD tumor xenografts
smiles,measurement,setting,value
COc1cc2cc(c1Cl)N(C)C(=O)C[C@H](OC(=O)[C@H](C)N(C)C(=O)CCSSC[C@H](NC(=O)[C@@H]1CSSC[C@H](NC(=O)[C@H](N)Cc3ccccc3)C(=O)N[C@@H](Cc3ccc(O)cc3)C(=O)N[C@H](Cc3c[nH]c4ccccc34)C(=O)N[C@@H](CCCCN)C(=O)N[C@@H]([C@@H](C)O)C(=O)N1)C(N)=O)[C@]1(C)O[C@H]1[C@H](C)[C@@H]1C[C@@](O)(NC(=O)O1)[C@H](OC)/C=C/C=C(\C)C2 [Conjugate 57],"PH3 levels at periphery, middle and core of the tumors",NCI-H69 SCLC tumors; single 2 mg/kg dose,Elevated levels of PH3 are seen at all depths of the tumor through 72 h
same,time of peak cell death (cleaved caspase-3),NCI-H69 SCLC tumors; single dose of 2 mg/kg,around 3 days
same,tumor response (tumor volume),[1],complete regression
same,dose response (tumor volume),[2]; [6],clear dose response
same,tolerability (body weight change),[2]; [6],all doses are well-tolerated
same,tumor response (tumor volume),[2]; single dose of 2 mg/kg,significant regression
same,clearance in human predicted by allometric scaling,[3],low clearance
same,TGI % Day 8,H69 tumors; Conjugate 57 1 mg/kg,50.1%
same,TGI % Day 11,H69 tumors; Conjugate 57 1 mg/kg,61.4%
same,TGI % Day 14,H69 tumors; Conjugate 57 1 mg/kg,60.4%
same,TGI % Day 19,H69 tumors; Conjugate 57 1 mg/kg,63%
same,TGI % Day 22,H69 tumors; Conjugate 57 1 mg/kg,58.4%
same,TGI % Day 8,H69 tumors; Conjugate 57 2 mg/kg,63.8%
same,TGI % Day 11,H69 tumors; Conjugate 57 2 mg/kg,82.8%
same,TGI % Day 14,H69 tumors; Conjugate 57 2 mg/kg,87.9%
same,TGI % Day 19,H69 tumors; Conjugate 57 2 mg/kg,95.5%
same,TGI % Day 22,H69 tumors; Conjugate 57 2 mg/kg,97.8%
same,TGI % Day 4,[4]; [7],−12.5%
same,TGI % Day 8,[4]; [7],50.4%
same,TGI % Day 11,[4]; [7],67.3%
same,TGI % Day 15,[4]; [7],85.8%
same,TGI % Day 18,[4]; [7],92.3%
same,TGI % Day 22,[4]; [7],95.8%
same,TGI % Day 25,[4]; [7],97.2%
same,TGI % Day 29,[4]; [7],97.8%
same,TGI % Day 4,[4]; [8],2.1%
same,TGI % Day 8,[4]; [8],34.2%
same,TGI % Day 11,[4]; [8],48%
same,TGI % Day 15,[4]; [8],62.4%
same,TGI % Day 18,[4]; [8],73.8%
same,TGI % Day 22,[4]; [8],79%
same,TGI % Day 25,[4]; [8],83.4%
same,TGI % Day 29,[4]; [8],78.5%
same,TGI % Day 4,"[4]; 0.5 mg/kg 2x/wk, 8 total doses",0.5%
same,TGI % Day 8,"[4]; 0.5 mg/kg 2x/wk, 8 total doses",61.6%
same,TGI % Day 11,"[4]; 0.5 mg/kg 2x/wk, 8 total doses",78.3%
same,TGI % Day 15,"[4]; 0.5 mg/kg 2x/wk, 8 total doses",91.8%
same,TGI % Day 18,"[4]; 0.5 mg/kg 2x/wk, 8 total doses",96.2%
same,TGI % Day 22,"[4]; 0.5 mg/kg 2x/wk, 8 total doses",97.6%
same,TGI % Day 25,"[4]; 0.5 mg/kg 2x/wk, 8 total doses",99.1%
same,TGI % Day 29,"[4]; 0.5 mg/kg 2x/wk, 8 total doses",99.2%
same,TGI % Day 4,[4]; [9],1.6%
same,TGI % Day 8,[4]; [9],60.3%
same,TGI % Day 11,[4]; [9],68.8%
same,TGI % Day 15,[4]; [9],82.7%
same,TGI % Day 18,[4]; [9],87.1%
same,TGI % Day 22,[4]; [9],91.1%
same,TGI % Day 25,[4]; [9],93.6%
same,TGI % Day 29,[4]; [9],89.5%
same,TGI % Day 4,[4]; [10],25.8%
same,TGI % Day 8,[4]; [10],69.9%
same,TGI % Day 11,[4]; [10],84.4%
same,TGI % Day 15,[4]; [10],93.6%
same,TGI % Day 18,[4]; [10],97.4%
same,TGI % Day 22,[4]; [10],99.2%
same,TGI % Day 25,[4]; [10],99.8%
same,TGI % Day 29,[4]; [10],99.7%
same,tolerability of multiple doses,[4]; all regimens,well tolerated
same,average body weight loss after the second dosing event,passage 3 IMR-32 tumors; 2.0 mg/kg once a week for two weeks,8.0%
same,mice showing complete regression,"passage 3 IMR-32 tumors; both treatment groups, 2.0 mg/kg or […] once a week for two weeks",10 out of 10
same,proliferation of MCF-7 cells,[5],reduces the proliferation of MCF-7 cells
same,SSTR2 internalization distribution of staining,SSTR2; [11],"significantly different results from BT-984 and naïve at 4 hr, 24 hr, and 72 hours"
same,SSTR2 receptor internalization intensity of staining,SSTR2; [11],"significantly different results from scrambled peptide version of compound 57 (BT-984) and naïve at 1 hr, 4 hr, and 72 hours"
same,SSTR2 internalization compared with octreotide,"SSTR2; Conjugate 57 2 mg/kg, Octreotide 1.4 mg/kg",caused more SSTR2 internalization than octreotide alone
